As usually defined, the logD is the decadic logarithm of the distribution of all forms, ionised or not, between an organic phase and buffer at a given pH. The low end stands for a more hydrophilic compound, the high end for a more lipophilic compound. By AUC is commonly meant the area under the concentration-time curve, a measure of exposure. Lower therefore signals low exposure. A word on the MRT: it is the average time that molecules of a dose stay in the body. Usually bioavailability stands for the share of a dose that reaches the circulation, judged against a reference dose that is usually intravenous. Lower therefore signals little systemic uptake. The term Cmax denotes the highest concentration seen after dosing.

A short description of data set [1]: Lipophilicity, log D of the compound at pH 7.4 by HPLC analysis. It counts as physicochemical. Conditions: buffer.
A short description of data set [2]: AUC in rat at 0.1 mg/kg, po by LC-MS-MS analysis. It counts as ADME, organism-based. Conditions: plasma. Details: dose 0.1 mg/kg, route oral.
Data set [3] can be described thus: Drug level in rat plasma at 0.2 mg/kg, iv after 15 mins by LC-MS-MS analysis. The class given is ADME, organism-based. Further details: dose 0.2 mg/kg, route intravenous.
Data set [4] can be described thus: Ratio of drug level in brain to plasma of rat at 0.2 mg/kg, iv after 15 mins by LC-MS-MS analysis. Conditions: read-out: BPR. The class given is ADME, organism-based. Further details: dose 0.2 mg/kg, route intravenous.
A short description of data set [5]: Drug level in rat brain at 0.2 mg/kg, iv after 15 mins by LC-MS-MS analysis. Conditions: read-out: Drug uptake. Further details: dose 0.2 mg/kg, route intravenous. The class given is ADME, organism-based.
A short description of data set [6]: Volume of distribution at steady state in rat at 0.1 mg/kg, iv by LC-MS-MS analysis. The class given is ADME, organism-based. Details: dose 0.1 mg/kg, route intravenous. Conditions: in vivo, read-out: Vdss.
Data set [7] in a line: Drug level in rat brain at 0.2 mg/kg, iv after 30 mins by LC-MS-MS analysis. The class given is ADME, organism-based. Further details: dose 0.2 mg/kg, route intravenous. Conditions: read-out: Drug uptake.
Data set [8] is described as follows: Mean residence time in rat at 0.1 mg/kg, po by LC-MS-MS analysis. The class given is ADME, organism-based. Particulars: in vivo. Details: dose 0.1 mg/kg, route oral.
A short description of data set [9]: Ratio of drug level in brain to plasma of rat at 0.2 mg/kg, iv after 30 mins by LC-MS-MS analysis. The class given is ADME, organism-based. Further details: dose 0.2 mg/kg, route intravenous. Particulars: read-out: BPR.
Data set [10] is described as follows: Oral bioavailability in rat at 0.1 mg/kg by LC-MS-MS analysis. It counts as ADME, organism-based. Conditions: in vivo.
Data set [11] can be described thus: Drug level in rat plasma at 0.2 mg/kg, iv after 30 mins by LC-MS-MS analysis. Further details: dose 0.2 mg/kg, route intravenous. It counts as ADME, organism-based.
Data set [12] is described as follows: Cmax in rat at 0.1 mg/kg, iv by LC-MS-MS analysis. The class given is ADME, organism-based. Further details: dose 0.1 mg/kg, route intravenous. Particulars: in vivo.

With `CC(=O)NCCC1=C(c2ccccc2)Cc2ccc3c(c21)CCO3`, in data set [1], the logD turned out to be 3.49.
In turn, `CC(=O)NCCc1c(-c2ccccc2)nc2ccc3c(n12)CCO3` showed a logD in data set [1] of 1.66.
As for `CC(=O)NCCn1c(-c2ccccc2)nc2ccc3c(c21)CCO3`, the logD in [1] came out at 1.39.
In data set [1], `CC(=O)NCCc1c(-c2ccccc2)nn2ccc3c(c12)CCO3` came in with a logD of 2.04.
The compound `CC(=O)NCCc1c(C)nn2ccc3c(c12)CCO3` had a pH-dependent lipophilicity (logD) in data set [1] of 1.04.
`CCC(=O)NCCc1c(C)nn2ccc3c(c12)CCO3`: in data set [1], the logD came out at 1.39.
`CCc1nn2ccc3c(c2c1CCNC(C)=O)CCO3` came in with a logD in data set [1] of 1.48. Besides, the AUC in data set [2] stood at 14.4 ng·h/mL. Besides, the concentration at […] was determined as 83.2 ng/mL in data set [3] and 23.7 ng/g in data set [5]. The Kp at […] in data set [4] was 0.28. In addition, the Vd in data set [6] stood at 0.664 L/kg. The concentration at 0.5 h in data set [7] came out at 12.4 ng/g; in [11], 55.9 ng/mL. The MRT in data set [8] turned out to be 57 min. In addition, in data set [9], the Kp at 0.5 h stood at 0.22. Also, the bioavailability in data set [10] is 19.7%. The peak level in data set [12] (Cmax) was 12.4 ng/mL.
`CCC(=O)NCCc1c(CC)nn2ccc3c(c12)CCO3`: the logD in data set [1] was 1.71.
`CC(=O)NCCc1c(C2CC2)nn2ccc3c(c12)CCO3` displayed a pH-dependent lipophilicity (logD) in data set [1] of 1.61.
On to `CCC(=O)NCCc1c(C2CC2)nn2ccc3c(c12)CCO3`, for which the logD in data set [1] is 1.89.
In turn, `CC(=O)NCCc1c(C(F)(F)F)nn2ccc3c(c12)CCO3` had a logD in data set [1] of 1.64.
Still for that read-out and setting: next, `CCC(=O)NCCc1c(C(F)(F)F)nn2ccc3c(c12)CCO3`: 1.94; `COc1ccc2[nH]cc(CCNC(C)=O)c2c1` [MELATONIN]: 0.5.
